Among the data in ChEMBL document CHEMBL1121676, “1980 Award in Medicinal Chemistry: Medicinal chemistry and dynamic structure-activity analysis in the discovery of drugs acting at histamine H2 receptors” (1981) are ID50 and ED50 values, retold here.

The source made the active and inactive calls. The rule behind the calls is not given here.

One experiment concerns Rattus norvegicus. Briefly: Tested for inhibition of histamine-stimulated gastric acid secretion in the lumen-perfused anesthetized rat expressed as intravenous dose which reduces a near maximal secretion to 50%; detectable. Type of experiment: functional, organism-based. To be noted: Stomach.
Regarding `CSC(=N)NCCc1c[nH]cn1`, the ID50 entry is “detectable”.

Consider `N=C(N)SCCCc1c[nH]cn1`, for which the ID50 result was “inactive”.

On to `CC(=N)NCCc1c[nH]cn1`, for which the ID50 result is listed as “detectable”.

For the next experiment, the system named is Rattus norvegicus. Kind of experiment: Tested for inhibition of histamine-stimulated gastric acid secretion in the lumen-perfused anesthetized rat expressed as intravenous dose which reduces a near maximal secretion to 50%. It is filed as functional. To be noted: Stomach, read-out: ID50 (the source's name).
As to `CSC(=N)NCCCc1c[nH]cn1`, the ED50 turned out to be 100 µmol/kg.

With `N=C(N)NCCCc1c[nH]cn1`, the ED50 was 100 µmol/kg.

For `N=C(N)NCCc1c[nH]cn1`, the ED50 is over 500 µmol/kg.

For the molecule `CC(=N)NCCCc1c[nH]cn1`, the ED50 is 100 µmol/kg.

In the case of `N=C(N)SCCc1c[nH]cn1` [IMETIT], the ED50 was determined as 200 µmol/kg.
